Columns and labels:
Vasopressin V2 receptor [1] = target: T1, Vasopressin V2 receptor (Homo sapiens, UniProt P30518); assay: Inhibitory activity of the human V2 receptor was assessed by the accumulation of cAMP in transfected HEK293 cells.; assay type: functional, cell-based
Vasopressin V2 receptor [2] = target: T1, Vasopressin V2 receptor; assay: Displacement of [3H]AVP from human V2 receptors expressed in HEK293 cells; assay type: cell-based
Vasopressin V1a receptor = Vasopressin V1a receptor (Homo sapiens, UniProt P37288); assay: Binding affinity towards VIa receptor
Vasopressin V2 receptor [3] = target: Vasopressin V2 receptor (Rattus norvegicus, UniProt Q00788); assay: Binding affinity towards V2 receptor
Vasopressin V2 receptor [4] = target: T1, Vasopressin V2 receptor; assay: Compound was assessed for their ability to displace [3H]AVP from human V2 receptors transfected into HEK293 cells at 0.1 uM concentration; assay type: cell-based

T1 sequence (P30518 whole entry): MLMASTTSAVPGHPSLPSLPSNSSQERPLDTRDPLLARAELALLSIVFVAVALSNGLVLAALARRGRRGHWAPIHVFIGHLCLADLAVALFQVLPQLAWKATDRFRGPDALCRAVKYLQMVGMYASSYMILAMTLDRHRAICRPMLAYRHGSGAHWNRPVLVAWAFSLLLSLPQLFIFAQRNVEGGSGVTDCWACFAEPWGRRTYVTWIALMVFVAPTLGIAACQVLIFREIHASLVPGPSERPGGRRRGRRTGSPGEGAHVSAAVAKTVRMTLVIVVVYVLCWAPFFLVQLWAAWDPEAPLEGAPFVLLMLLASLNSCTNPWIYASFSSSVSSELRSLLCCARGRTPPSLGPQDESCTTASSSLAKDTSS
Chain of Vasopressin V1a receptor (P37288 whole entry): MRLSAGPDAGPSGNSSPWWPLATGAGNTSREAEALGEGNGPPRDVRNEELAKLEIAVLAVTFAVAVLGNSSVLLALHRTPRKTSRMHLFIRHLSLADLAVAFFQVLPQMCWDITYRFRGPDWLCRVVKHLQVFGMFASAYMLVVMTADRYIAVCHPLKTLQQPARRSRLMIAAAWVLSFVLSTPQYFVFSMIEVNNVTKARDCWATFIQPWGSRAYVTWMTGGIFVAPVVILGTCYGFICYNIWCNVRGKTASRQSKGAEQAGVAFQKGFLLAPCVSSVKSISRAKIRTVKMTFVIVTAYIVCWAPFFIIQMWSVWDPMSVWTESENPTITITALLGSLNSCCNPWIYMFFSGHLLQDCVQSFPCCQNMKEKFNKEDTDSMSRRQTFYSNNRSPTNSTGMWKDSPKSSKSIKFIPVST
Chain of Vasopressin V2 receptor (Rattus norvegicus, UniProt Q00788) (Q00788 whole entry): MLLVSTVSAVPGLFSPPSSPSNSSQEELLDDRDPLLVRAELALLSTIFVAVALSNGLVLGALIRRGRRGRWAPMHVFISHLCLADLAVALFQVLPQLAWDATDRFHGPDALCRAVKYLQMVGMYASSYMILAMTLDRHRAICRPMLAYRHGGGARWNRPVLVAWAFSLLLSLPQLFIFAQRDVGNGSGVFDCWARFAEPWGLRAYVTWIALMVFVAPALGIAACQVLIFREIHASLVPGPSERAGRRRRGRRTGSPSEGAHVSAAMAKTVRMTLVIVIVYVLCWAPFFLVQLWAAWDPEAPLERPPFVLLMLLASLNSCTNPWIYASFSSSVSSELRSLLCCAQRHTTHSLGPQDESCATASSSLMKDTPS

O=C(Nc1ccc(C(=O)N2CCCc3c[nH]c4cccc2c34)cc1)c1ccccc1-c1ccccc1 was tested, and the IC50 (Vasopressin V2 receptor [1]) was 70 nM, the IC50 (Vasopressin V2 receptor [2]) was 20 nM and the IC50 (Vasopressin V1a receptor) was 3100 nM. The IC50 (Vasopressin V2 receptor [3]) was 1 nM.
In the case of O=C(Nc1ccc(C(=O)N2CCCc3c(Cl)[nH]c4cccc2c34)cc1)c1ccccc1-c1ccccc1, the IC50 (Vasopressin V2 receptor [2]) is reported as 44 nM.
With Cc1ccc(-c2ccccc2C(=O)Nc2ccc(C(=O)N3CCCc4c[nH]c5cccc3c45)cc2)cc1 the IC50 (Vasopressin V2 receptor [1]) was 70 nM and the IC50 (Vasopressin V2 receptor [2]) was 11 nM.
Cc1ccc(F)cc1C(=O)Nc1ccc(C(=O)N2CCCc3c[nH]c4cccc2c34)cc1 was tested, and the IC50 (Vasopressin V2 receptor [2]) was 190 nM.
O=C(Nc1ccc(C(=O)N2CCCc3c(S(=O)(=O)O)[nH]c4cccc2c34)cc1Cl)c1ccccc1-c1ccccc1 was tested, and the IC50 (Vasopressin V2 receptor [2]) was 12 nM.
With CC(=O)n1cc2c3c(cccc31)N(C(=O)c1ccc(NC(=O)c3ccccc3-c3ccc(C)cc3)cc1)CCC2 the IC50 (Vasopressin V2 receptor [2]) was 170 nM.
In the case of Cc1ccc(-c2ccccc2C(=O)Nc2ccc(C(=O)N3CCCc4cn(Cc5ccccc5)c5cccc3c45)cc2)cc1, the inhibition (Vasopressin V2 receptor [4]) is reported as less than 30%.
In the case of Cc1ccc(F)cc1C(=O)Nc1ccc(C(=O)N2Cc3cccn3Cc3ccccc32)c(Cl)c1 [LIXIVAPTAN], the IC50 (Vasopressin V2 receptor [1]) is reported as 91 nM.
Cc1c(F)cccc1C(=O)Nc1ccc(C(=O)N2CCCc3c[nH]c4cccc2c34)cc1 showed an IC50 (Vasopressin V2 receptor [2]) of 180 nM.
O=C(Nc1ccc(C(=O)N2CCCc3c(S(=O)(=O)O)[nH]c4cccc2c34)cc1)c1ccccc1-c1ccccc1 was tested, and the IC50 (Vasopressin V2 receptor [2]) was 13 nM.
Cc1ccc(-c2ccccc2C(=O)Nc2ccc(C(=O)N3CCCc4cn(C)c5cccc3c45)cc2)cc1 was tested, and the IC50 (Vasopressin V2 receptor [2]) was 210 nM.
With CCOC(=O)Cn1cc2c3c(cccc31)N(C(=O)c1ccc(NC(=O)c3ccccc3-c3ccc(C)cc3)cc1)CCC2 the IC50 (Vasopressin V2 receptor [2]) was 550 nM.
With O=C(Nc1ccc(C(=O)N2CCCc3c[nH]c4cccc2c34)c(Cl)c1)c1ccccc1-c1ccccc1 the IC50 (Vasopressin V2 receptor [1]) was 330 nM and the IC50 (Vasopressin V2 receptor [2]) was 50 nM.
For CCCn1cc2c3c(cccc31)N(C(=O)c1ccc(NC(=O)c3ccccc3-c3ccc(C)cc3)cc1)CCC2, the inhibition (Vasopressin V2 receptor [4]) was less than 30%.
Work on Cc1ccccc1C(=O)Nc1ccc(C(=O)N2CCCc3c[nH]c4cccc2c34)cc1 yielded an inhibition (Vasopressin V2 receptor [4]) of less than 30%.
O=C(Nc1ccc(C(=O)N2CCCc3c[nH]c4cccc2c34)cc1Cl)c1ccccc1-c1ccccc1 was tested, and the IC50 (Vasopressin V2 receptor [2]) was 15 nM.
Work on O=C(Nc1ccc(C(=O)N2CCCC3C(=O)Nc4cccc2c43)cc1)c1ccccc1-c1ccccc1 (configuration not stated) yielded an IC50 (Vasopressin V2 receptor [2]) of 8 nM.

From ChEMBL document CHEMBL1136603, “Synthesis and biological evaluation of novel indoloazepine derivatives as non-peptide vasopressin V2 receptor antagonists” (Bioorg Med Chem Lett, 2003)
